According to patent US7402606B2, “Derivatives of 1-(oxoaminoacetyl) pentylcarbamate as cathepsin K inhibitors for the treatment of bone loss” (SmithKline Beecham Corporation, priority 2002, dated 2008):

Tests used:
Type in all cases: biochemical
rat cathepsin K = molecular target: T1, rat cathepsin K (Rattus norvegicus, UniProt O35186); assay: Cathepsin K inhibition assay, rat recombinant enzyme, fluorogenic substrate Cbz-Phe-Arg-AMC; settings: Table 2, rat cathepsin K; read-out: r Cat K IC50
T1 construct: The proform of cathepsin K was converted to mature cathepsin K by brief exposure to pH 4; made in house; host or cells: baculovirus; Trichoplusia ni High Five cells (virus raised in Sf-9)
T1 sequence (O35186 115-329): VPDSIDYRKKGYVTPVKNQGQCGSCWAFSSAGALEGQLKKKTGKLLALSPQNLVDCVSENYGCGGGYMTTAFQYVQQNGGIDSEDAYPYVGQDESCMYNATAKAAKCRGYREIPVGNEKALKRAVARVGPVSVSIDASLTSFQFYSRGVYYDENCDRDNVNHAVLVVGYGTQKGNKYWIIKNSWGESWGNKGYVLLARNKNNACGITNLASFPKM
Protocol: (§1) All assays for cathepsin K were carried out with human and rat recombinant enzyme. Assays for cathepsins S ? V were also carried out with human recombinant enzyme. Assays for human cathepsins B, H, and L were carried out with enzyme, purchased from Athens Research and Technology, Inc., prepared from human liver tissue. Standard assay conditions for the determination of kinetic constants used a fluorogenic peptide substrate, typically (5S,8S)-13-amino-5-benzyl-13-imino-3-methylene-N-(4-methyl-2-oxo-2H-chromen-7-yl)-6-oxo-1-phenyl-2-oxa-4,7,12triazatridecane-8-carboxamide (Cbz-Phe-Arg-AMC), and were determined in 100 mM sodium acetate at pH 5.5 containing 10 mM dithiothreitol and 120 mM sodium chloride. […]
(§2) All assays contained 10% dimethyl sulfoxide. […] Product fluorescence (excitation at 360 nm; emission at 440 nm, (except cathepsin H which used excitation at 340 nm; emission at 420 nm)) was monitored with a PerSeptive Biosystems Cytofluor II fluorescence plate reader. […]
Protein Purification: Media (human and rat) were filtered through a Whatman 3 filter, and then loaded onto a 25 mL. […] The column was washed until the absorbance reached the baseline value, and then the protein was eluted with a linear gradient from 0-2 M sodium chloride in the equilibration buffer. Column fractions were analyzed by SDS-PAGE, N-terminal sequencing, and mass spectrometry. […]

human cathepsin H = human cathepsin H (Homo sapiens, UniProt P09668); assay: Cathepsin H inhibition assay, enzyme from human liver tissue, L-Arg-β-naphthalamide; settings: Table 2, human cathepsin H; read-out: h Cat H IC50
Protocol: as §1, §2
(§3) Potential inhibitors were evaluated using the progress curve method. […] For those compounds whose progress curves were linear, the enzymatic activity (RATE) was plotted against the concentration of test compound, including inhibitor concentration of zero ([I]=0), and the IC50 determined from a fit of equation 1 to the data, RATE=Vmax/(1+([I]/IC50)) (1) where Vmax is the best fit estimate of the maximal enzymatic activity. […]

human cathepsin S = human cathepsin S (Homo sapiens, UniProt P25774); assay: Cathepsin S inhibition assay, human recombinant enzyme, Cbz-Val-Val-Arg-AMC; settings: Table 2, human cathepsin S; read-out: h Cat S IC50
Protocol: as §1, §2, §3

Chain of human cathepsin S (P25774 115-331): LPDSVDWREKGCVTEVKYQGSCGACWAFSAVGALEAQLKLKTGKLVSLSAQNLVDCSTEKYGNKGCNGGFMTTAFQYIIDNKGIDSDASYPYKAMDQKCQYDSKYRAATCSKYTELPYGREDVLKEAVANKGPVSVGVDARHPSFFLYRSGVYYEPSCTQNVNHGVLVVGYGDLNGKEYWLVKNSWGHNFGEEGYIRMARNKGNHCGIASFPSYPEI
Chain of human cathepsin H (P09668 116-335 limits assumed, other chains not shown): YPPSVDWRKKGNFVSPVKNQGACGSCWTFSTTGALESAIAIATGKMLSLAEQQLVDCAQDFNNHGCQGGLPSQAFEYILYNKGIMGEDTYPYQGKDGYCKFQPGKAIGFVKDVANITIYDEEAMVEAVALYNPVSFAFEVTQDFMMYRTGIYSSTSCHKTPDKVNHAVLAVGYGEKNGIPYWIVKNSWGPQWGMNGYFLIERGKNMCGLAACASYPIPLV

| IC50 (rat cathepsin K) | IC50 (human cathepsin H) | IC50 (human cathepsin S) | Compound |
| --- | --- | --- | --- |
| 10 to 100 nM | 100 to 1000 nM | 10 to 100 nM | CCCC[C@H](NC(=O)O[C@@H]1CN(c2nnc(C(F)(F)F)s2)CC1(C)C)C(=O)C(=O)Nc1ccn[nH]1 [Example 82, (3S)-4,4-Dimethyl-1-[5-(trifluoromethyl)-1,3,4-thiadiazol-2-yl]pyrrolidinyl-(1S)-1-[oxo(1H-pyrazol-5-ylamino)acetyl]pentylcarbamate] |
| 10 to 100 nM | 100 to 1000 nM | 1 to 10 nM | CCCC[C@H](NC(=O)O[C@@H]1CN(C(=O)Nc2ccc(C(F)(F)F)cc2)CC1(C)C)C(=O)C(=O)Nc1ccn[nH]1 [Example 71, (3S)-4,4-dimethyl-1-{[4-(trifluoromethyl)anilino]carbonyl}pyrrolidinyl (1S)-1-[oxo(1H-pyrazol-5-ylamino)acetyl]pentylcarbamate] |
